Source: US20090176817A1, “Method of Treatment of Diarrhea-Predominant Irritable Bowel Syndrome in a Subject” (priority 2005, published 2009)
Where two headings read alike, the source gives them in different places.

Assays:
[1] = system: diarrhea-predominant IBS subjects; format: in vivo, human; details: for Percentage of Subjects Who Worsened from Baseline: Daily Abdominal Pain / Percentage of Subjects Who Worsened from Baseline: Daily Urgency: S241.3.009, observed value
Excerpt: The primary efficacy parameter was the overall response rate for IBS symptoms, based on the weekly question concerning adequate relief of IBS symptoms (abdominal pain/discomfort, abnormal bowel habits) over the 26 weeks period. A responder was a subject who responded “yes” at least 50% of the time during his/her treatment period, with minimum treatment duration of four weeks. The two main secondary efficacy parameters were overall responder rate based on the weekly question on adequate relief of abdominal pain/discomfort and abnormal bowel habits during the 26-week treatment period. The onset of action of cilansetron was also examined using daily diary data (stool frequency, and ratings of urgency and severity) during the initial 8 weeks of trial participation. An additional key secondary efficacy parameter was the number of months (one month equals four weeks) up to six months (24-weeks) that a subject was a responder for IBS symptoms, where a responder was defined as a subject who answered the weekly question with “yes” at least twice for that month. The responder rate for the weekly diary questions on adequate relief at each month and all months, the adequate relief rate, the number of subjects with adequate relief by week, daily diary questions, IBS-QOL scores, and the interruption of activities were also assessed. Safety was evaluated by physical examination, ECG, vital signs, laboratory evaluations, concomitant medications, and AEs.
Studies S24 1.3.OO6, S24 1.3.0 1 1, and S24 1.3.009 used the following efficacy measurements: • The subjects answered the following three questions with “yes” or “no” using a phone diary at the end of each week: • a) During the last week, did you experience adequate relief of your IBS symptoms, such as abdominal pain, abdominal discomfort, abnormal bowel habits? • b) During the last week, did you experience adequate relief of your abdominal pain and/or discomfort? • c) During the last week, did you experience adequate relief of your abnormal bowel habits? • The subjects rated the following symptoms using the phone diary at the end of each day: • abdominal pain/discomfort (five-point scale); • stool consistency (seven-point Bristol Stool Scale); • stool frequency (number of bowel movements each day); • urgency (five-point scale); • straining (yes or no); • feeling of incomplete defecation (yes or no); • bloating or feeling of abdominal distension (five-point scale). • In Studies S241 A006 and S241.3.009, subjects completed the IBS-QOL Survey at Baseline (Day 1) and at the end of treatment. In Study S24 1.3.0 1 1, subjects completed the IBS-QOL Survey at Baseline (Day 1), at the end of the three-month treatment period, and at the end of rerandomized treatment.
Other secondary efficacy parameters for all three studies included: • Responder rate for the weekly diary questions on adequate relief at each month, where a responder for a month (monthly responder) was defined as a subject who answered the weekly question with “yes” at least twice for that month. The responder rate was the percentage of responders within a treatment group. The all-month responder rate for the weekly diary questions on adequate relief was also evaluated, where an all-month responder was defined as a subject who answered the weekly question with “yes” at least twice for each month. […]

[2] = system: diarrhea-predominant IBS subjects; test: Study S241.3.011: safety; format: in vivo, human
Excerpt: The primary efficacy parameter was the number of months that a subject was a responder for IBS symptoms (abdominal pain, abdominal discomfort, abnormal bowel habits) over the 12-week treatment period. A responder for a month (monthly responder) was defined as a subject who answered the weekly question with “yes” at least twice for that month. The two main secondary efficacy parameters were the monthly responder rates based on the “adequate relief” questions regarding abdominal pain/discomfort and abnormal bowel habits during the 12-week treatment period. The overall response rate and responder rate for the weekly diary questions on adequate relief at each month and all months, the adequate relief rate, the number of subjects with adequate relief by week, daily diary questions, IBS-QOL scores, and the interruption of activities were also assessed. Safety was evaluated by physical examination, ECG, vital signs, laboratory evaluations, concomitant medications, and AEs.

Question: With `Cc1nccn1C[C@H]1CCc2c(c3cccc4c3n2CCC4)C1=O` [Cilansetron, (R)-(−)-4,5,6,8,9,10-hexahydro-10-[(2-methyl-1H-imidazol-1-yl)methyl]-11H-pyrido-[3,2,1-jk]-carbazol-11-one] as the compound, how does the “Mean number of stools per day at end of treatment” value ([1]; 2 mg TID) read?
Answer: The value was 1.96 stools per day.

Question: What about the Stools per day ([1]; Day 2 of treatment) of the same compound?
Answer: Its Stools per day is 2.97 stools per days.

Question: And the “Median rate of pain-free days” value ([1]; Month 1 to Month 3)?
Answer: Its value is 0.13.

Question: And the “Median rate of urgency-free days” value ([1]; Month 1 to Month 3)?
Answer: Its value is 0.05.

Question: And the “Median rate of pain-free days” value ([1]; Month 4 to Month 6)?
Answer: Its value is 0.31.

Question: What about the “Median rate of urgency-free days” value ([1]; Month 4 to Month 6) of the same compound?
Answer: Its value is 0.10.

Question: And the “Percentage of Subjects Who Worsened from Baseline: Daily Abdominal Pain” value (“Percentage … Daily Abdominal Pain” below) ([1]; Weeks 1-2, 2 mg TID)?
Answer: Its value is 13%.

Question: And the “Percentage of Subjects Who Worsened from Baseline: Daily Urgency” value (“Percentage … Daily Urgency” for short) ([1]; Weeks 1-2, 2 mg TID)?
Answer: Its value is 7%.

Question: And the “Percentage … Daily Abdominal Pain” value ([1]; Weeks 3-4, 2 mg TID)?
Answer: Its value is 8%.

Question: And the “Percentage … Daily Urgency” value ([1]; Weeks 3-4, 2 mg TID)?
Answer: Its value is 5%.

Question: And the “Percentage … Daily Abdominal Pain” value ([1]; Weeks 5-6, 2 mg TID)?
Answer: Its value is 8%.

Question: What about the “Percentage … Daily Urgency” value ([1]; Weeks 5-6, 2 mg TID) of the same compound?
Answer: Its value is 5%.

Question: What about the “Percentage … Daily Abdominal Pain” value ([1]; Weeks 7-8, 2 mg TID) of the same compound?
Answer: Its value is 7%.

Question: And the “Percentage … Daily Urgency” value ([1]; Weeks 7-8, 2 mg TID)?
Answer: Its value is 4%.

Question: And the “Percentage … Daily Abdominal Pain” value ([1]; Weeks 9-10, 2 mg TID)?
Answer: Its value is 4%.

Question: What about the “Percentage … Daily Urgency” value ([1]; Weeks 9-10, 2 mg TID) of the same compound?
Answer: The value was 6%.

Question: What about the “Percentage … Daily Abdominal Pain” value ([1]; Weeks 11-12, 2 mg TID) of the same compound?
Answer: The value was 7%.

Question: And the “Percentage … Daily Urgency” value ([1]; Weeks 11-12, 2 mg TID)?
Answer: Its value is 4%.

Question: What about the “Percentage … Daily Abdominal Pain” value ([1]; Weeks 13-26, 2 mg TID) of the same compound?
Answer: The value was 6-8%.

Question: What about the “Percentage … Daily Urgency” value ([1]; Weeks 13-26, 2 mg TID) of the same compound?
Answer: The value was 5-8%.

Question: What about the “Subjects worsened from Baseline, daily abdominal pain” value ([1]; Weeks 1-2) of the same compound?
Answer: The value was 13%.

Question: And the “Subjects worsened from Baseline, daily urgency” value ([1]; Weeks 1-2)?
Answer: Its value is 7%.

Question: And the “Bloating or abdominal distention score, change from Baseline at end of treatment” value ([1]; in vivo)?
Answer: Its value is −0.75.

Question: And the “Daily abdominal pain/discomfort score, change from Baseline at end of treatment” value ([1]; in vivo)?
Answer: Its value is −0.92.

Question: And the “Daily stool consistency score, change from Baseline at end of treatment” value ([1]; in vivo)?
Answer: Its value is −1.40.

Question: What about the “Daily urgency score, change from Baseline at end of treatment” value ([1]; in vivo) of the same compound?
Answer: The value was −0.80.

Question: What about the “Feeling of incomplete evacuation, change from Baseline at end of treatment” value ([1]; in vivo) of the same compound?
Answer: Its value is −0.25.

Question: And the “Mean stool consistency score at end of treatment” value ([1]; in vivo)?
Answer: The value was 4.27.

Question: And the “Mean straining, change from Baseline at end of treatment” value ([1]; in vivo)?
Answer: Its value is 0.06.

Question: What about the “Pain-free days at end of treatment” value ([1]; in vivo) of the same compound?
Answer: Its value is 0.29.

Question: And the “Stools per day, change from Baseline at end of treatment” value ([1]; in vivo)?
Answer: Its value is −1.60.

Question: What about the “Urgency-free days at end of treatment” value ([1]; in vivo) of the same compound?
Answer: The value was 0.08.

Question: And the “Median rate of pain-free days” value ([1]; six-month period)?
Answer: Its value is 0.19.

Question: What about the “Median rate of urgency-free days” value ([1]; six-month period) of the same compound?
Answer: The value was 0.07.

Question: What about the “Number of subjects who died during the three-month treatment period” value ([2]; 2 mg TID, 388 randomized, S241.3.011) of the same compound?
Answer: Its value is 1 (<1) n (%).

Question: What about the Constipation ([2]; female, human, in vivo, 3 months) of the same compound?
Answer: The Constipation was 26%.

Question: What about the “Fecal occult blood positive and/or blood in stool” value ([2]; human, in vivo) of the same compound?
Answer: Its value is 7%.

Question: What about the Abdominal distension ([2]; human, in vivo, 3 months) of the same compound?
Answer: Its Abdominal distension is 5%.

Question: What about the “Abdominal pain NOS” value ([2]; human, in vivo, 3 months) of the same compound?
Answer: Its value is 6%.

Question: And the Abdominal pain upper ([2]; human, in vivo, 3 months)?
Answer: Its Abdominal pain upper is 2%.

Question: And the Constipation ([2]; human, in vivo, 3 months)?
Answer: The Constipation was 20%.

Question: What about the Flatulence ([2]; human, in vivo, 3 months) of the same compound?
Answer: The Flatulence was 4%.

Question: And the “Serious AEs” value ([2]; human, in vivo, 3 months)?
Answer: The value was 2%.

Question: And the “Subjects with at least one TEAE” value ([2]; human, in vivo, 3 months)?
Answer: Its value is 69%.

Question: What about the “At least one TEAE, entire four-month period” value ([2]; human, in vivo, 4 months) of the same compound?
Answer: The value was 78%.

Question: And the “TEAEs leading to permanent discontinuation” value ([2]; in vivo)?
Answer: The value was “Eleven”.

Question: And the Constipation ([2]; male, human, in vivo, 3 months)?
Answer: The Constipation was 8%.
